Measurements: patent US11254680B2, “Cyclic iminopyrimidine derivatives as kinase inhibitors” (ABM Therapeutics Corporation, priority 2017, dated 2022)

test system: A375 melanoma cells; experiment: Antiproliferation assay in A375 cell line by CellTiter Glo; assay type: cell-based; conditions: Homo sapiens, A-375, 72 hours or 144 hours
Description: In vitro anti-proliferation study of test compounds in A375 cell line by CellTiter Glo. The cells were routinely maintained as a monolayer culture in corresponding culture medium, at 37° C. with 5% CO2 in air.
Harvest the exponential growth cells by trypsin-EDTA digestion. Re-suspend the cell pellet in fresh culture medium, and adjust the concentration to needed (the cell density per well was listed in following form). The cell viability is over 98% by Trypan blue staining. Inoculate cells into 96 wells plates according to the plate map (90 μL/well). Incubate the plates at 37° C. and 5% CO2 overnight. The next day, prepare the 10×compound containing medium according to the plate map. Transfer 10 μL of 10×compound containing medium into each well of the assay plates (the final DMSO concentration is 0.5%). Gently mix the medium and incubate at 37° C. and 5% CO2 for another 72 hours or 144 hours.
Prepare the reagent according to the manufacture's instruction. Add 50 μL CellTiter-Glo Reagent in each well. Mix contents for 2 minutes on an orbital shaker to induce cell lysis. Allow the plate to incubate at room temperature for 10 minutes to stabilize luminescent signal. Transfer 100 μL of reaction contents of each well from the clear plates into white walled/white opaque 96-well plates. Record the luminescence on Envision.
Using the luminescence measurements [time zero (T0), control growth (C), and test growth in the presence of drug at the six concentration levels (Ti)], the percentage growth is calculated at each of the drug concentrations levels.
Percentage growth inhibition (GI) is calculated as: GI (%)═[(Ti-T0)/(C-T0)]×100 for concentrations for which Ti>=T0, and GI (%)═[(Ti-T0)/T0]×100 for concentrations for which Ti<T0. Data were analyzed using the XLFit (Excel) tool, fitting to a 4-parameter equation to generate concentration response curves. Concentration of compound that inhibits 50% of control cell growth (GI50) was back-interpolated when y=50% of net growth of DMSO treated control wells using nonlinear regression with the equation: f(x) 205 [fit=(A+((B−A)/(1+((C/x)^))))], where A is the minimum response (Ymin), B is the maximum response (Ymax), C is the inflection point of the curve (Re GI50) and D is the Hill coefficient. Growth inhibition of 50% (GI50) was calculated at the 50% Growth inhibition on the curve. Index values were the sum of Inhibition rate (IR) at each tested compound concentration.

First: CCCS(=O)(=O)Nc1c(F)cc(F)c(Oc2ccc3c(c2)C2=NCCN2C=N3)c1C#N [Compound 4, N-(2-Cyano-3-((2,3-dihydroimidazo[1,2-c]quinazolin-9-yl)oxy)-4,6-difluorophenyl)propane-1-sulfonamide]
Second: CCCS(=O)(=O)Nc1ccc(F)c(Oc2ccc3c(c2)C2=NCCN2C=N3)c1F [Compound 10, N-(3-((2,3-Dihydroimidazo[1,2-c]quinazolin-9-yl)oxy)-2,4-difluorophenyl)propane-1-sulfonamide]
The GI50 of the first is lower: 0.1 to 1 µM for the first, over 1 µM for the second.

CCCS(=O)(=O)Nc1ccc([N+](=O)[O-])c(Oc2ccc3c(c2)C2=NCCN2C=N3)c1F [Compound 7, N-(3-((2,3-Dihydroimidazo[1,2-c]quinazolin-9-yl)oxy)-2-fluoro-4-nitrophenyl)propane-1-sulfonamide] and CCCS(=O)(=O)Nc1ccc(N)c(Oc2ccc3c(c2)C2=NCCN2C=N3)c1F [Compound 8, N-(4-Amino-3-((2,3-dihydroimidazo[1,2-c]quinazolin-9-yl)oxy)-2-fluorophenyl)propane-1-sulfonamide] cannot be ordered by GI50: over 1 µM for the first, over 1 µM for the second.

CCCS(=O)(=O)Nc1cccc(Oc2ccc3c(c2)C2=NCCN2C=N3)c1N [Compound 13, N-(2-Amino-3-((2,3-dihydroimidazo[1,2-c]quinazolin-9-yl)oxy)phenyl)propane-1-sulfonamide] and CCCS(=O)(=O)Nc1cccc(Oc2ccc3c(c2)C2=NCCCCN2C=N3)c1C#N [Compound 28, N-(2-Cyano-3-((2,3,4,5-tetrahydro-[1,3]diazepino[1,2-c]quinazolin-11-yl)oxy)phenyl)propane-1-sulfonamide] cannot be ordered by GI50: over 1 µM for the first, over 1 µM for the second.

CCCS(=O)(=O)Nc1c([N+](=O)[O-])ccc(Oc2ccc3c(c2)C2=NCCCN2C=N3)c1F [Compound 19, N-(3-((3,4-Dihydro-2H-pyrimido[1,2-c]quinazolin-10-yl)oxy)-2-fluoro-6-nitrophenyl)propane-1-sulfonamide] and CCCS(=O)(=O)Nc1c(N)ccc(Oc2ccc3c(c2)C2=NCCCN2C=N3)c1F [Compound 20, N-(6-Amino-3-((3,4-dihydro-2H-pyrimido[1,2-c]quinazolin-10-yl)oxy)-2-fluorophenyl)propane-1-sulfonamide] cannot be ordered by GI50: over 1 µM for the first, over 1 µM for the second.

CCCS(=O)(=O)Nc1ccnc(Oc2ccc3c(c2)C2=NCCCN2C=N3)c1[N+](=O)[O-] [Compound 22, N-(2-((3,4-Dihydro-2H-pyrimido[1,2-c]quinazolin-10-yl)oxy)-3-nitropyridin-4-yl)propane-1-sulfonamide] and CCCS(=O)(=O)Nc1ccnc(Oc2ccc3c(c2)C2=NCCCN2C=N3)c1C#N [Compound 25, N-(3-Cyano-2-((3,4-dihydro-2H-pyrimido[1,2-c]quinazolin-10-yl)oxy)pyridin-4-yl)propane-1-sulfonamide] cannot be ordered by GI50: over 1 µM for the first, over 1 µM for the second.

First: CCCS(=O)(=O)Nc1nccc(Oc2ccc3c(c2)C2=NCCCN2C=N3)c1C#N [Compound 24, N-(3-Cyano-4-((3,4-dihydro-2H-pyrimido[1,2-c]quinazolin-10-yl)oxy)pyridin-2-yl)propane-1-sulfonamide]
Second: CCCS(=O)(=O)Nc1cccc(Oc2cc3c(cn2)N=CN2CCCN=C32)c1C#N [Compound 27, N-(2-Cyano-3-((3,4-dihydro-2H-pyrido[4,3-e]pyrimido[1,2-c]pyrimidin-10-yl)oxy)phenyl)propane-1-sulfonamide]
The GI50 of the first is higher: over 1 µM for the first, 0.1 to 1 µM for the second.

Compared with O=S(=O)(CCCF)Nc1cccc(Oc2ccc3c(c2)C2=NCCCN2C=N3)c1Cl [Compound 38, N-(2-Chloro-3-((3,4-dihydro-2H-pyrimido[1,2-c]quinazolin-10-yl)oxy)phenyl)-3-fluoropropane-1-sulfonamide], O=S(=O)(CCCO)Nc1cccc(Oc2ccc3c(c2)C2=NCCCN2C=N3)c1Cl [Compound 39, N-(2-Chloro-3-((3,4-dihydro-2H-pyrimido[1,2-c]quinazolin-10-yl)oxy)phenyl)-3-hydroxypropane-1-sulfonamide] is higher in GI50: under 0.1 µM for the first, 0.1 to 1 µM for the second.

O=S(=O)(Nc1cccc(Oc2ccc3c(c2)C2=NCCCN2C=N3)c1Cl)N1CC[C@@H](F)C1 [Compound 40, (R)—N-(2-Chloro-3-((3,4-dihydro-2H-pyrimido[1,2-c]quinazolin-10-yl)oxy)phenyl)-3-fluoropyrrolidine-1-sulfonamide] and O=S(=O)(Nc1cccc(Oc2ccc3c(c2)C2=NCCN2C=N3)c1Cl)N1CCCC1 [Compound 48, N-(2-Chloro-3-((2,3-dihydroimidazo[1,2-c]quinazolin-9-yl)oxy)phenyl)pyrrolidine-1-sulfonamide] cannot be ordered by GI50: under 0.1 µM for the first, under 0.1 µM for the second.

Compared with CCN(C)S(=O)(=O)Nc1cccc(Oc2ccc3c(c2)C2=NCCCN2C=N3)c1Cl [Compound 41, N-(2-Chloro-3-((3,4-dihydro-2H-pyrimido[1,2-c]quinazolin-10-yl)oxy)phenyl)-N-ethyl-N-methylamino-1-sulfonamide], CCN(C)S(=O)(=O)Nc1cccc(Oc2ccc3c(c2)C2=NCCN2C=N3)c1Cl [Compound 45, N-(2-Chloro-3-((2,3-dihydroimidazo[1,2-c]quinazolin-9-yl)oxy)phenyl)-N-ethyl-N-methylamino-1-sulfonamide] is higher in GI50: under 0.1 µM for the first, over 1 µM for the second.

Compared with CCCS(=O)(=O)Nc1cccc(N(C)c2cc3c(cn2)N=CN2CCCN=C32)c1C#N [Compound 42, N-(2-Cyano-3-((3,4-dihydro-2H-pyrido[4,3-e]pyrimido[1,2-c]pyrimidin-10-yl)(methyl)amino)phenyl)propane-1-sulfonamide], CCCS(=O)(=O)Nc1cccc(Nc2cc3c(cn2)N=CN2CCCN=C32)c1C#N [Compound 43, N-(2-Cyano-3-((3,4-dihydro-2H-pyrido[4,3-e]pyrimido[1,2-c]pyrimidin-10-yl)amino)phenyl)propane-1-sulfonamide] is lower in GI50: over 1 µM for the first, 0.1 to 1 µM for the second.

CC(C)S(=O)(=O)Nc1cccc(Oc2ccc3c(c2)C2=NCCN2C=N3)c1Cl [Compound 44, N-(2-Chloro-3-((2,3-dihydroimidazo[1,2-c]quinazolin-9-yl)oxy)phenyl)propane-2-sulfonamide] and CN(CCF)S(=O)(=O)Nc1cccc(Oc2ccc3c(c2)C2=NCCN2C=N3)c1Cl [Compound 47, N-(2-Chloro-3-((2,3-dihydroimidazo[1,2-c]quinazolin-9-yl)oxy)phenyl)-(2-fluoroethyl)(methyl)amino-1-sulfonamide] cannot be ordered by GI50: under 0.1 µM for the first, under 0.1 µM for the second.

O=S(=O)(Nc1cc(Oc2ccc3c(c2)C2=NCCN2C=N3)ccc1F)N1CCCC1 [Compound 49, N-(5-((2,3-Dihydroimidazo[1,2-c]quinazolin-9-yl)oxy)-2-fluorophenyl)pyrrolidine-1-sulfonamide] and CCCS(=O)(=O)Nc1cc(Oc2ccc3c(c2)C2=NCCN2C=N3)ccc1F [Compound 51, N-(5-((2,3-Dihydroimidazo[1,2-c]quinazolin-9-yl)oxy)-2-fluorophenyl)propane-1-sulfonamide] cannot be ordered by GI50: over 1 µM for the first, over 1 µM for the second.

CC1(C)CN2C=Nc3ccc(Oc4cccc(NS(=O)(=O)N5CC[C@@H](F)C5)c4Cl)cc3C2=N1 [Compound 53, (R)—N-(2-Chloro-3-((2,2-dimethyl-2,3-dihydroimidazo[1,2-c]quinazolin-9-yl)oxy)phenyl)-3-fluoropyrrolidine-1-sulfonamide] and CC1(C)CN2C=Nc3ccc(Oc4cccc(NS(=O)(=O)N5CCCC5)c4Cl)cc3C2=N1 [Compound 54, N-(2-Chloro-3-((2,2-dimethyl-2,3-dihydroimidazo[1,2-c]quinazolin-9-yl)oxy)phenyl)pyrrolidine-1-sulfonamide] cannot be ordered by GI50: under 0.1 µM for the first, under 0.1 µM for the second.

For CCCS(=O)(=O)Nc1cccc(Oc2ccc3c(c2)C2=NC(C)(C)CN2C=N3)c1Cl [Compound 55, N-(2-Chloro-3-((2,2-dimethyl-2,3-dihydroimidazo[1,2-c]quinazolin-9-yl)oxy)phenyl)propane-1-sulfonamide], the GI50 was under 0.1 µM.
